From PubChem BioAssay AID330 (DTP/NCI, 2004)
“And” between values parts separate entries of the source, which are not always exact repeats. Equal entries are not always repeated. Inconclusive results and toxic doses are left out. How the source made its calls: active means survival T/C of 150% or more; inactive means T/C below 125% in these data.

System: P388 leukemia ip, CD2F1 mice, survival T/C
Assay: NCI In Vivo Anticancer Drug Screen. Data for tumor model P388 Leukemia (intraperitoneal) in CD2F1 (CDF1) mice
Conditions: endpoint: median survival time, higher = longer survival
Outline: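 Mice carrying the transplanted tumor received test compound or vehicle. Survival was recorded in each group, and the value is the treated-group measurement divided by that of the vehicle-treated control group.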

Measured: T/C

O=C(CBr)CC(O)(C(F)(F)F)C(F)(F)F
inactive: dose: 3.0 mg/kg/injection, schedule: Q04DX003 (ip), vehicle: saline 100 % of control | dose: 6.0 mg/kg/injection, schedule: Q04DX003 (ip), vehicle: saline 100 % of control | dose: 12.0 mg/kg/injection, schedule: Q04DX003 (ip), vehicle: saline 91 % of control

COC(=O)C1=C(C(=O)OC)C(=Nc2ccccc2)c2ccccc2C1=O
inactive: dose: 100.0 mg/kg/injection, schedule: Q04DX002 (ip), vehicle: Klucel (hydroxypropylcellulose) (HPC) 100 % of control | dose: 200.0 mg/kg/injection, schedule: Q04DX002 (ip), vehicle: Klucel (hydroxypropylcellulose) (HPC) 100 % of control | dose: 400.0 mg/kg/injection, schedule: Q04DX002 (ip), vehicle: Klucel (hydroxypropylcellulose) (HPC) 110 % of control

CC1(C)OCC(C(OS(C)(=O)=O)C2OC(C)(C)OC2COS(C)(=O)=O)O1 (centres undefined)
inactive: dose: 50.0 mg/kg/injection, schedule: Q01DX009 (ip), vehicle: Klucel (hydroxypropylcellulose) (HPC) 91 % of control | dose: 100.0 mg/kg/injection, schedule: Q01DX009 (ip), vehicle: Klucel (hydroxypropylcellulose) (HPC) 97 % of control | dose: 200.0 mg/kg/injection, schedule: Q01DX009 (ip), vehicle: Klucel (hydroxypropylcellulose) (HPC) 99 % of control

CCOC(OCC)C(=O)NNS(=O)(=O)c1ccc(C)cc1
inactive: dose: 12.5 mg/kg/injection, schedule: Q01DX009 (ip), vehicle: other 105 % of control | dose: 25.0 mg/kg/injection, schedule: Q01DX009 (ip), vehicle: other 106 % of control | dose: 50.0 mg/kg/injection, schedule: Q01DX009 (ip), vehicle: other 100 % of control | dose: 100.0 mg/kg/injection, schedule: Q01DX009 (ip), vehicle: other 99 % of control | dose: 200.0 mg/kg/injection, schedule: Q01DX009 (ip), vehicle: other 90 % of control

O=C1OS(=O)(=O)c2cc3c(cc21)C1C(C2C3C3(Cl)C(Cl)=C(Cl)C2(Cl)C3(Cl)Cl)C2(Cl)C(Cl)=C(Cl)C1(Cl)C2(Cl)Cl (centres undefined)
inactive: dose: 12.5 mg/kg/injection, schedule: Q01DX009 (ip), vehicle: saline 97 % of control | dose: 25.0 mg/kg/injection, schedule: Q01DX009 (ip), vehicle: saline 100 % of control | dose: 50.0 mg/kg/injection, schedule: Q01DX009 (ip), vehicle: saline 100 % of control and 104 % of control | dose: 100.0 mg/kg/injection, schedule: Q01DX009 (ip), vehicle: saline 107 % of control

Cc1n[nH]c(=O)[nH]c1=O
inactive: dose: 100.0 mg/kg/injection, schedule: Q04DX003 (ip), vehicle: Klucel (hydroxypropylcellulose) (HPC) 100 % of control | dose: 200.0 mg/kg/injection, schedule: Q04DX003 (ip), vehicle: Klucel (hydroxypropylcellulose) (HPC) 100 % of control | dose: 400.0 mg/kg/injection, schedule: Q04DX003 (ip), vehicle: Klucel (hydroxypropylcellulose) (HPC) 90 % of control

CCN(Cc1ccc(Cl)c(Cl)c1)c1ccc2nc(N)nc(N)c2c1C
active: dose: 50.0 mg/kg/injection, schedule: Q04DX003 (ip), vehicle: water 155 % of control
inactive: dose: 6.25 mg/kg/injection, schedule: Q01DX009 (ip), vehicle: Klucel (hydroxypropylcellulose) (HPC) 121 % of control | dose: 12.5 mg/kg/injection, schedule: Q01DX009 (ip), vehicle: Klucel (hydroxypropylcellulose) (HPC) 116 % of control | dose: 12.5 mg/kg/injection, schedule: Q04DX003 (ip), vehicle: water 116 % of control and 91 % of control | dose: 25.0 mg/kg/injection, schedule: Q01DX009 (ip), vehicle: Klucel (hydroxypropylcellulose) (HPC) 114 % of control | dose: 25.0 mg/kg/injection, schedule: Q04DX003 (ip), vehicle: water 114 % of control and 122 % of control | dose: 100.0 mg/kg/injection, schedule: Q04DX003 (ip), vehicle: water 117 % of control and 90 % of control

Cc1ccc(S(=O)(=O)C(C#N)(CCC(=O)/C=C/c2ccccc2)CCC(=O)/C=C/c2ccccc2)cc1
inactive: dose: 50.0 mg/kg/injection, schedule: Q01DX005 (ip), vehicle: Klucel (hydroxypropylcellulose) (HPC) 99 % of control | dose: 100.0 mg/kg/injection, schedule: Q01DX005 (ip), vehicle: Klucel (hydroxypropylcellulose) (HPC) 92 % of control | dose: 200.0 mg/kg/injection, schedule: Q01DX005 (ip), vehicle: Klucel (hydroxypropylcellulose) (HPC) 92 % of control

CN(CCO)c1ncnc2c1cnn2C
inactive: dose: 50.0 mg/kg/injection, schedule: Q01DX005 (ip), vehicle: saline 100 % of control | dose: 100.0 mg/kg/injection, schedule: Q01DX005 (ip), vehicle: saline 101 % of control | dose: 200.0 mg/kg/injection, schedule: Q01DX005 (ip), vehicle: saline 100 % of control

CCCCN=[N+]=[N-]
inactive: dose: 12.5 mg/kg/injection, schedule: Q01DX009 (ip), vehicle: water 91 % of control | dose: 25.0 mg/kg/injection, schedule: Q01DX009 (ip), vehicle: water 98 % of control | dose: 50.0 mg/kg/injection, schedule: Q01DX009 (ip), vehicle: water 98 % of control | dose: 100.0 mg/kg/injection, schedule: Q01DX009 (ip), vehicle: water 100 % of control | dose: 200.0 mg/kg/injection, schedule: Q01DX009 (ip), vehicle: water 96 % of control
